Patent publication US11524938B2, “Aromatic sulfonamide derivatives” (Bayer Pharma Aktiengesellschaft, priority 2016, dated 2022)
Read-outs that look alike come from different tables or passages of the source.

Molecular target: T1, human P2X4 (Homo sapiens, UniProt Q99571)
T1 sequence (Q99571 1-388): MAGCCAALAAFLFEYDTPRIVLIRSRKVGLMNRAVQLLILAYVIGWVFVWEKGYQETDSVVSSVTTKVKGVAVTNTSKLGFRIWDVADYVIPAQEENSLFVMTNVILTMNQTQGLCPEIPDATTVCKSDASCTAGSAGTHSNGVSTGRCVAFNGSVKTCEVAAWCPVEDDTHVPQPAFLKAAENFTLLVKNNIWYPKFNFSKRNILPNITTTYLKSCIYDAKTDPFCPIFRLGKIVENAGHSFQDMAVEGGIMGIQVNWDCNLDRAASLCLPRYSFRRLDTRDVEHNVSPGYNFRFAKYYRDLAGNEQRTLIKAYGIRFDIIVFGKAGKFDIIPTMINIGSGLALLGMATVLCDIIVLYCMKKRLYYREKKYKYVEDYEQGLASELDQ
Assay: Human P2X4 HEK Cell FLIPR Assay
Type: cell-based
Details: agonist Bz-ATP at EC80; for Emax: percentage of maximal inhibition, read-out: Human P2X4 HEK Cells (FLIPR Assay) avg Efficacy [%]; for IC50: individual values listed where some fall outside detection range
Protocol: HEK293 cells stably expressing human P2X4 were plated in poly-D-lysine-coated 384-well plates at a seeding density of 30000 cells/well and incubated overnight. P2X4 function was assessed by measuring intracellular calcium changes using the calcium-chelating dye Fluo8-AM (Molecular Devices) on a fluorescent imaging plate reader (FLEX/FLIPR station; Molecular Devices). On the day of the assay, the medium was removed and the cells were incubated for 30 min at 37° C. and 5% CO2 in 30 μL of dye buffer (Hank's balanced salt solution, 10 mM HEPES, 1.8 mM CaCl2, 1 mM MgCl2, 2 mM probenecid, 5 mM D-glucose monohydrate, 5 μM Fluo8-AM, pH=7.4). Compounds diluted in probenecid buffer (Hank's balanced salt solution, 10 mM HEPES, 1.8 mM CaCl2, 1 mM MgCl2, 2 mM probenecid, 5 mM D-glucose monohydrate, pH=7.4) were added in a volume of 10 μL and allowed to incubate for 30 min at room temperature. The final assay DMSO concentration was 0.5%. The agonist, Bz-ATP (Tocris), was added in a volume of 10 μL at a concentration representing the EC80 value. The EC80 value of Bz-ATP was determined each assay day prior to compound profiling. The fluorescence was measured for an interval of 120 sec at 2 sec intervals. The excitation and emission wavelengths used to monitor fluorescence were 470-495 nm and 515-575 nm, respectively. The data was analyzed based on the increase in peak relative fluorescence units (RFU) compared to the basal fluorescence and the data was normalized to the agonist control. The compounds were tested in triplicates per plate and mean values were plotted in Excel XLFit to determine IC50 values, percentage of maximal inhibition and the Hill coefficients.

| SMILES | Emax (HEK293, HEK293 cells) [%] | IC50 (HEK293 cells) [nM] | Emax (HEK293 cells) [%] |
| --- | --- | --- | --- |
| NS(=O)(=O)c1cc(NC(=O)Cc2ccc(F)cc2Cl)ccc1-c1cnn(C2CC2)c1 [Example 278, 2-(2-Chloro-4-fluorophenyl)-N-[4-(1-cyclopropyl-1H-pyrazol-4-yl)-3-sulfamoyl-phenyl]acetamide] | 102 | 93 | – |
| NS(=O)(=O)c1cc(NC(=O)Cc2ccccc2O)ccc1-n1cc(F)cn1 [Example 147, N-[4-(4-Fluoro-1H-pyrazol-1-yl)-3-sulfamoylphenyl]-2-(2-hydroxyphenyl)acetamide] | 100 | 80 | – |
| N#Cc1cn(-c2ccc(NC(=O)Cc3ccccc3Cl)cc2S(N)(=O)=O)nc1Br [Example 540, N-[4-(3-Bromo-4-cyano-1H-pyrazol-1-yl)-3-sulfamoylphenyl]-2-(2-chlorophenyl)acetamide] | 79 | 1 | – |
| Cc1nnc(-c2ccc(NC(=O)Cc3ccccc3F)cc2S(N)(=O)=O)o1 [Example 525, 2-(2-Fluorophenyl)-N-[4-(5-methyl-1,3,4-oxadiazol-2-yl)-3-sulfamoylphenyl]acetamide] | 72 | 5170 | – |
| NS(=O)(=O)c1cc(NC(=O)Cc2ccccc2Br)ccc1-c1cncc(C(F)(F)F)c1 [Example 449, 2-(2-Bromophenyl)-N-{3-sulfamoyl-4-[5-(trifluoromethyl)pyridin-3-yl]phenyl}acetamide] | 73 | 135 | – |
| NS(=O)(=O)c1cc(NC(=O)Cc2ccccc2Cl)ccc1-c1cnn2cccnc12 [Example 365, 2-(2-Chlorophenyl)-N-[4-(pyrazolo[1,5-a]pyrimidin-3-yl)-3-sulfamoylphenyl]acetamide] | 89 | 113 | – |
| NS(=O)(=O)c1cc(NC(=O)Cc2ccccc2Cl)ccc1-c1cnn(C(F)F)c1C(F)(F)F [Example 492, 2-(2-Chlorophenyl)-N-{4-[1-(difluoromethyl)-5-(trifluoromethyl)-1H-pyrazol-4-yl]-3-sulfamoylphenyl}acetamide] | 92 | 531 | – |
| NS(=O)(=O)c1cc(NC(=O)Cc2ccccc2F)ccc1-n1cc(C(F)(F)F)cn1 [Example 20, 2-(2-Fluorophenyl)-N-{3-sulfamoyl-4-[4-(trifluoromethyl)-1H-pyrazol-1-yl]phenyl}-acetamide] | 67 | – | – |
| NS(=O)(=O)c1cc(NC(=O)Cc2c(Cl)cccc2Cl)ccc1-n1cc(Cl)cn1 [Example 80, N-[4-(4-Chloro-1H-pyrazol-1-yl)-3-sulfamoylphenyl]-2-(2,6-dichlorophenyl)acetamide] | 96 | 79 | – |
| NS(=O)(=O)c1cc(NC(=O)Cc2ccc(C(F)(F)F)cc2)ccc1-c1cncc(C(F)(F)F)c1 [Example 446, N-{3-Sulfamoyl-4-[5-(trifluoromethyl)pyridin-3-yl]phenyl}-2-[4-(trifluoromethyl)phenyl]acetamide] | 76 | 621 | – |
| CC(C(=O)Nc1ccc(-n2cc(F)cn2)c(S(N)(=O)=O)c1)c1c(F)cccc1F (stereo not drawn) [Example 171, 2-(2,6-Difluorophenyl)-N-[4-(4-fluoro-1H-pyrazol-1-yl)-3-sulfamoylphenyl]-propanamide] | 90 | 2240 | – |
| NS(=O)(=O)c1cc(NC(=O)Cc2ccccc2OC(F)(F)F)ccc1-c1cncc(C(F)(F)F)c1 [Example 222, N-{3-Sulfamoyl-4-[5-(trifluoromethyl)pyridin-3-yl]phenyl}-2-[2-(trifluoromethoxy)-phenyl]acetamide] | 83 | 92 | – |
| NS(=O)(=O)c1cc(NC(=O)Cc2ccncc2Cl)ccc1-c1cnn(C(F)F)c1 [Example 230, 2-(3-Chloropyridin-4-yl)-N-{4-[1-(difluoromethyl)-1H-pyrazol-4-yl]-3-sulfamoyl-phenyl}acetamide] | 90 | 351 | – |
| Cc1cccc(CC(=O)Nc2ccc(-n3cc(F)cn3)c(S(N)(=O)=O)c2)c1 [Example 151, N-[4-(4-Fluoro-1H-pyrazol-1-yl)-3-sulfamoylphenyl]-2-(3-methylphenyl)acetamide] | 83 | 81 | – |
| NS(=O)(=O)c1cc(NC(=O)Cc2ccccc2Cl)ccc1-c1cnc(C2CC2)o1 [Example 439, 2-(2-Chlorophenyl)-N-[4-(2-cyclopropyl-1,3-oxazol-5-yl)-3-sulfamoylphenyl]acetamide] | 94 | 4 | – |
| NS(=O)(=O)c1cc(NC(=O)Cc2ccccc2F)cnc1-n1cc(Cl)cn1 [Example 388, N-[6-(4-Chloro-1H-pyrazol-1-yl)-5-sulfamoylpyridin-3-yl]-2-(2-fluorophenyl)acetamide] | 68 | 196 | – |
| NS(=O)(=O)c1cc(NC(=O)Cc2cc(F)ccc2Cl)ccc1-n1cc(C(F)(F)F)cn1 [Example 139, 2-(2-Chloro-5-fluorophenyl)-N-{3-sulfamoyl-4-[4-(trifluoromethyl)-1H-pyrazol-1-yl]phenyl}acetamide] | 100 | 107 | – |
| NS(=O)(=O)c1cc(NC(=O)Cc2ccccc2Cl)ccc1-c1cncc(Cl)c1 [Example 325, 2-(2-Chlorophenyl)-N-[4-(5-chloropyridin-3-yl)-3-sulfamoylphenyl]acetamide] | 94 | 9 | – |
| NS(=O)(=O)c1cc(NC(=O)Cc2ccccc2Cl)cnc1-c1cncc(C(F)(F)F)c1 [Example 305, 2-(2-Chlorophenyl)-N-[3-sulfamoyl-5′-(trifluoromethyl)-2,3′-bipyridin-5-yl]acetamide] | 49 | 21 | – |
| NS(=O)(=O)c1cc(NC(=O)Cc2cc(F)c(F)cc2Cl)ccc1-n1cc(Br)cn1 [Example 71, N-[4-(4-Bromo-1H-pyrazol-1-yl)-3-sulfamoylphenyl]-2-(2-chloro-4,5-difluorophenyl)-acetamide] | 80 | 132 | – |
| NS(=O)(=O)c1cc(NC(=O)Cc2ccccc2F)ccc1-c1nnc(C(F)(F)F)o1 [Example 390, 2-(2-Fluorophenyl)-N-{3-sulfamoyl-4-[5-(trifluoromethyl)-1,3,4-oxadiazol-2-yl]phenyl}acetamide] | – | 1700 | 91 |
| COc1ncc(-c2ccc(NC(=O)Cc3ccccc3Cl)cc2S(N)(=O)=O)cn1 [Example 285, 2-(2-Chlorophenyl)-N-[4-(2-methoxypyrimidin-5-yl)-3-sulfamoylphenyl]acetamide] | 97 | 246 | – |
| NS(=O)(=O)c1cc(NC(=O)Cc2ccccc2Cl)ccc1-c1cnn(CCOC(F)(F)F)c1 [Example 279, 2-(2-Chlorophenyl)-N-(3-sulfamoyl-4-{1-[2-(trifluoromethoxy)ethyl]-1H-pyrazol-4-yl}phenyl)acetamide] | 96 | 61 | – |
| CC(=O)c1cnn(-c2ccc(NC(=O)Cc3ccccc3Cl)cc2S(N)(=O)=O)c1 [Example 232, N-[4-(4-Acetyl-1H-pyrazol-1-yl)-3-sulfamoylphenyl]-2-(2-chlorophenyl)acetamide] | 89 | 81 | – |
| NS(=O)(=O)c1cc(NC(=O)Cc2ccccc2Cl)ccc1-c1cnc(NC2CC2)nc1 [Example 299, 2-(2-Chlorophenyl)-N-{4-[2-(cyclopropylamino)pyrimidin-5-yl]-3-sulfamoylphenyl}acetamide] | 88 | 203 | – |
| Cc1ccc(F)c(CC(=O)Nc2ccc(-n3cc(C#N)cn3)c(S(N)(=O)=O)c2)c1Cl [Example 207, 2-(2-Chloro-6-fluoro-3-methylphenyl)-N-[4-(4-cyano-1H-pyrazol-1-yl)-3-sulfamoylphenyl]acetamide] | 98 | 12 | – |
